Assay: molar heat capacity at constant pressure
Conditions: Liquid, Large sample (1 g) DSC

CC(C)O [propan-2-ol]
molar heat capacity at constant pressure [J/K/mol]
Conditions	100 kPa	20000 kPa	40000 kPa
253.15 K	129.4	126.1	125.8
258.15 K	130.6	128.3	127.3
263.15 K	132.6	130.7	129.2
268.15 K	135	133.4	131.5
273.15 K	138	136.3	134
278.15 K	141.4	139.4	136.8
283.15 K	145.1	142.6	140
288.15 K	148.9	146	143.3
293.15 K	152.9	149.6	146.9
298.15 K	157	153.3	150.7
303.15 K	161.1	157.1	154.7
308.15 K	165	161.1	159
313.15 K	168.6	165	163.3
318.15 K	171.9	169.1	167.8
323.15 K	174.9	173.2	172.4

Reference: the NIST ThermoML archive (doi:10.1016/j.tca.2010.05.012)
